Literature values as cited in US20180346488A1, “CYTOTOXIC BENZODIAZEPINE DERIVATIVES AND CONJUGATES THEREOF” (priority 2017, published 2018).

Settings: Phase I clinical evaluation; cited from earlier work

In the case of `C=C1C[C@H]2C=Nc3cc(OCCCOc4cc5c(cc4OC)C(=O)N4CC(=C)C[C@H]4C=N5)c(OC)cc3C(=O)N2C1` [SJG-136], the “DNA damage in circulating lymphocytes” value is listed as “noted at all doses”, the adverse effects noted is listed as “vascular leak syndrome, peripheral edema, liver toxicity and fatigue” and the maximum tolerated dose is listed as 45 μg/m^2.
